Results on two substances are retold here after US20010046668A1, “Fluorescence polarization method for determining protease activity” (G.D. Searle & Co., priority 1994, published 2001).

The assay addresses HCMV protease (also known as assemblin) encoded by UL80 (Human cytomegalovirus, UniProt P16753). The assay is described as follows: Assemblin fluorescence polarization assay: hydrolysis of biotin/DTAF peptide substrate, quenched with avidin. In kind it is biochemical, human cytomegalovirus strain AD169. The following applies: for Polarization: protease 100 nM, substrate 5 μM final, room temperature, avidin added. On the procedure: The construction also encoded six additional histidine residues at the amino terminus of the protease. These additional histidine residues provided an affinity ligand by which it was purified using nickel-nitriloacetic acid-agarose (Qiagen).
The assay was performed in a buffer consisting 10 mM Phosphate buffer, pH 7.4, 20% glycerol, 150 mM sodium acetate, 0.1% CHAPS, 0.1 mM EDTA, 0.05% BSA, 2 mM NaSO3. The pH of the buffer was adjusted to 7.4 before the addition of glycerol.
The purified protease was stored as a 10 μM stock solution in 50/50 (V/V) glycerol/water, 50 μL per vial, and held at −20° C. A positive displacement pipette was used to make the 50 μL aliquots. This stock was diluted with assay buffer to 32 nM. A 100 μL aliquot of this solution was used in the enzyme reaction. A 150 μM substrate stock solution was prepared in assay buffer and stored at 4° C. in the dark. A 20 μM dilute assay stock was prepared by dilution of the 150 μM storage stock. A 5 mg/mL avidin stock solution was made by dissolving avidin (Molecular Probes) in assay buffer and stored in the refrigerator at 4° C. Roundbottom 96-well plate microtiter plates (Black MicroFluor, Dynatec) were pre-blocked with 1.0% BSA in PBS, pH 7.4, and stored at 4° C. The plates were rinsed and dried before use.
An HCMV protease (also known as assemblin) encoded by UL80, in buffer (100 nM) was added in multiple wells to rinsed and dried, pre-blocked microtiter plate. No precautions are taken to stabilize the temperature. Substrate (5 μM final concentration) was added, mixed 5 times, and incubated at room temperature. Avidin (35 μL of 5 mg/mL) was added to one group of wells after 10 minutes, to a second group of wells after 20 minutes and to the remaining wells after thirty minutes, mixed 5 times, and the polarization of the resulting mixture was measured on the FPM2 fluorescence polarimeter. The complete hydrolysis to Ser-Ala-Leu-Arg-Lys(DTAF)-NH2 gave a Pmin value of 32.1 mP.
A general note: In fluorescence polarisation assays a small probe gives low polarisation when free and higher when bound to something large.

No end group written: not given here.

HCMV protease (also known as assemblin) encoded by UL80, sequence (P16753 1-256): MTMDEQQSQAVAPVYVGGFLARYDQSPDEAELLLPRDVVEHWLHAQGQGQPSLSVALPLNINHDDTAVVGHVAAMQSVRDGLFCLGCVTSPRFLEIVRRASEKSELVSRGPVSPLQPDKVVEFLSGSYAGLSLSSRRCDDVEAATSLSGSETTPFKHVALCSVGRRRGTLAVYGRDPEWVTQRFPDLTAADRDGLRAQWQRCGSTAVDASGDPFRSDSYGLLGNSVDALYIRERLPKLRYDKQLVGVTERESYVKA

For the substance “Biotin-γ-Abu-Gly-Val-Val-Asn-Ala-Ser-Ala-Arg-Leu-Lys(DTAF)-NH2 [Example 1]”, the “ΔP = Pmax − P(t)” value reads like this: (time 0 min) 0.0 mP; (time 10 min) 47.0 mP; (time 20 min) 77.2 mP; (time 30 min) 99.9 mP. For the same substance, the Polarization reads like this: (time 0 min) 214.1 mP; (time 10 min) 167.2 mP; (time 20 min) 136.9 mP; (time 30 min) 114.2 mP.

As to “Ser-Ala-Leu-Arg-Lys(DTAF)-NH2 (SALRK(DTAF)-NH2) [cleaved fluorescent fragment from complete hydrolysis of the assemblin substrate]”, the “Pmin value (polarization)” value (complete hydrolysis of the substrate to the cleaved fluorescent fragment) is listed as 32.1 mP.
